Literature values, collected in US20040265249A1, “Composition for protecting skin from damaging effects of ultraviolet light” (Desert Whale Jojoba Company, priority 2003, published 2004).

Conditions: Yagi K, Ohishi N, 1979

COc1cc(/C=C/C(=O)O)ccc1O [ferulic acid]
antioxidant action: can scavenge free radicals
